Test results: US10633419B2, “Immunomodulators” (BRISTOL-MYERS SQUIBB COMPANY, priority 2014, dated 2020)
pIC50: −log10 of the molar value. Starred links: 1 amine or outer side, 2 acyl side, 3 side chain; linkers in the order of their positions; H or OH if unused. Positions of bridges follow the written chain, without caps; N, C: chain ends. Non-standard residues stand in square brackets, D forms with d. Residues, ends and D or L forms follow the SMILES beside them. Groups on a side chain read outwards from the residue. *: point of attachment. Trp(1-CH2COOH) = N[C@@H](Cc1cn(CC(=O)O)c2ccccc12)C(=O)O; C18 diacid = O=C(O)CCCCCCCCCCCCCCCCC(=O)*; Phe(4-F) = N[C@@H](Cc1ccc(F)cc1)C(=O)O; γGlu = O=C(O)[C@H](CCC(=O)[*:2])N[*:1]; Ethylenediamine = C(CN[*:2])N[*:1]; Hyp = O=C(O)[C@@H]1C[C@@H](O)CN1; NMeNle = CCCC[C@H](NC)C(=O)O; Pip = O=C(O)[C@@H]1CCCCN1; Dab = NCC[C@H](N)C(=O)O; Dap = NC[C@H](N)C(=O)O

Biological target: T1, PD-L1 (Homo sapiens, UniProt Q9NZQ7)
T1 construct: hPDL1(19-239)-TVMV-His; made in house; host or cells: HEK293T
T1 sequence (Q9NZQ7 with tags, fused parts or gaps): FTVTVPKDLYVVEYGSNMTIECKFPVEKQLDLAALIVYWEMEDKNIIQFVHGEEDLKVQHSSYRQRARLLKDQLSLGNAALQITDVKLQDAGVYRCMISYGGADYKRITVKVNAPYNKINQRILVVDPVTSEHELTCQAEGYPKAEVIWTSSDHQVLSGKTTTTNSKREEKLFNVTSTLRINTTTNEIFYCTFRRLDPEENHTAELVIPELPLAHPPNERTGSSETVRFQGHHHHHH
Experiment: PD-1/PD-L1 Homogenous Time-Resolved Fluorescence (HTRF) binding assay (PD-1-Ig/PD-L1-His)
Settings: inhibition of PD-1-Ig binding to PD-L1-TVMV-His; value given as range class; read-out: HTRF IC50
In short: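 Inhibitors pre-incubated 15 min with PD-L1-His (10 nM final), then PD-1-Ig (20 nM final) added for 15 min in dPBS/0.1% BSA/0.05% Tween-20. Eu-cryptate anti-Ig (1 nM) and APC anti-His (20 nM) added, 30 min equilibration, 665/620 nm HTRF ratio read.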

SMILES	pIC50
CCCC[C@H]1C(=O)N(C)[C@@H](CCCC)C(=O)N[C@@H](CC(C)C)C(=O)N[C@H](C(=O)NCC(=O)N[C@@H](Cc2cn(CCOCCOCCOCCOCCOCCOCCOCCOCCOCCOCCOCCNC(=O)CC[C@H](NC(=O)CCCCCCCCCCCCCCCCC(=O)O)C(=O)O)nn2)C(=O)O)CSCC(=O)N[C@@H](Cc2ccc(O)cc2)C(=O)N2CCCC[C@H]2C(=O)N[C@@H](CC(N)=O)C(=O)N2CCC[C@H]2C(=O)N[C@@H](CN)C(=O)N[C@@H](CC(C)C)C(=O)N2C[C@H](O)C[C@H]2C(=O)N[C@@H](Cc2c[nH]c3ccccc23)C(=O)N[C@@H](CCN)C(=O)N[C@@H](Cc2cn(CC(=O)O)c3ccccc23)C(=O)N1C [Example 14104]	5.80 to 7.00
CCCC[C@H]1C(=O)N(C)[C@@H](CCCC)C(=O)N[C@@H](CC(C)C)C(=O)N[C@H](C(=O)NCC(=O)N[C@@H](Cc2cn(CCOCCOCCOCCOCCOCCOCCOCCOCCOCCOCCOCCNC(=O)CC[C@H](NC(=O)CCCCCCCCCCCCCCCCC(=O)O)C(=O)O)nn2)C(=O)O)CSCC(=O)N[C@@H](Cc2ccc(O)cc2)C(=O)N2CCCC[C@H]2C(=O)N[C@@H](CC(N)=O)C(=O)N2CCC[C@H]2C(=O)N[C@@H](CNC)C(=O)N[C@@H](CC(C)C)C(=O)N2C[C@H](O)C[C@H]2C(=O)N[C@@H](Cc2c[nH]c3ccccc23)C(=O)N[C@@H](CCN)C(=O)N[C@@H](Cc2cn(CC(=O)O)c3ccccc23)C(=O)N1C [Example 14105]	5.80 to 7.00
CCCC[C@H]1C(=O)N(C)[C@@H](CCCC)C(=O)N[C@@H](CCC(=O)O)C(=O)N[C@H](C(=O)NCC(=O)N[C@@H](Cc2cn(CCOCCOCCOCCOCCOCCOCCOCCOCCOCCOCCOCCNC(=O)CC[C@H](NC(=O)CCCCCCCCCCCCCCCCC(=O)O)C(=O)O)nn2)C(=O)O)CSCC(=O)N[C@@H](Cc2ccc(O)cc2)C(=O)N2CCCC[C@H]2C(=O)N[C@@H](CC(N)=O)C(=O)N2CCC[C@H]2C(=O)N[C@@H](CN)C(=O)N[C@@H](CC(C)C)C(=O)N2C[C@H](O)C[C@H]2C(=O)N[C@@H](Cc2c[nH]c3ccccc23)C(=O)N[C@@H](CCN)C(=O)N[C@@H](Cc2cn(CC(=O)O)c3ccccc23)C(=O)N1C [Example 14106]	5.80 to 7.00
CCCC[C@H]1C(=O)N(C)[C@@H](CCCC)C(=O)N[C@@H](CCC(=O)O)C(=O)N[C@H](C(=O)NCC(=O)N[C@@H](Cc2cn(CCOCCOCCOCCOCCOCCOCCOCCOCCOCCOCCOCCNC(=O)CC[C@H](NC(=O)CCCCCCCCCCCCCCCCC(=O)O)C(=O)O)nn2)C(=O)O)CSCC(=O)N[C@@H](Cc2ccc(O)cc2)C(=O)N2CCCC[C@H]2C(=O)N[C@@H](CC(N)=O)C(=O)N2CCC[C@H]2C(=O)N[C@@H](CNC)C(=O)N[C@@H](CC(C)C)C(=O)N2C[C@H](O)C[C@H]2C(=O)N[C@@H](Cc2c[nH]c3ccccc23)C(=O)N[C@@H](CCN)C(=O)N[C@@H](Cc2cn(CC(=O)O)c3ccccc23)C(=O)N1C [Example 14107]	5.80 to 7.00
CCCC[C@H]1C(=O)N(C)[C@@H](CCCC)C(=O)N[C@@H](CC(C)C)C(=O)N[C@H](C(=O)NCC(=O)N[C@@H](CC(=O)NCCNC(=O)CC[C@H](NC(=O)CCCCCCCCCCCCCCCCC(=O)O)C(=O)O)C(=O)O)CSCC(=O)N[C@@H](Cc2ccc(F)cc2)C(=O)N2CCCC[C@H]2C(=O)N[C@@H](CC(=O)O)C(=O)N2CCC[C@H]2C(=O)N[C@@H](CN)C(=O)N[C@@H](CC(C)C)C(=O)N2C[C@H](O)C[C@H]2C(=O)N[C@@H](Cc2c[nH]c3ccccc23)C(=O)N[C@@H](CCN)C(=O)N[C@@H](Cc2cn(CC(=O)O)c3ccccc23)C(=O)N1C [Example 14124] ({CH2CO}-[Phe(4-F)][Pip]DP[Dap]L[Hyp]W[Dab][Trp(1-CH2COOH)][NMeNle][NMeNle]LCGD([Ethylenediamine-γGlu-C18 diacid])-OH; thioether N-14)	7.00 to 8.00

Further lines, results first:

pIC50	SMILES
7.00 to 8.00	CCCC[C@H]1C(=O)N(C)[C@@H](CCCC)C(=O)N[C@@H](CCC(=O)O)C(=O)N[C@H](C(=O)NCC(=O)N[C@@H](Cc2cn(CC[C@H](NC(=O)CCCCCCCCCCCCCCCCC(=O)O)C(=O)O)nn2)C(=O)O)CSCC(=O)N[C@@H](Cc2ccc(OC)cc2)C(=O)N2CCCC[C@H]2C(=O)N[C@@H](CC(=O)O)C(=O)N2CCC[C@H]2C(=O)N[C@@H](CN)C(=O)N[C@@H](CCC(N)=O)C(=O)N2C[C@H](O)C[C@H]2C(=O)N[C@@H](Cc2c[nH]c3ccccc23)C(=O)N[C@@H](CCN)C(=O)N[C@@H](Cc2cn(CC(=O)O)c3ccccc23)C(=O)N1C [Example 14121]
7.00 to 8.00	CCCC[C@H]1C(=O)N(C)[C@@H](CCCC)C(=O)N[C@@H](CC(C)C)C(=O)N[C@H](C(=O)NCC(=O)N[C@@H](Cc2cn(CC[C@H](NC(=O)CCCCCCCCCCCCCCCCC(=O)O)C(=O)O)nn2)C(=O)O)CSCC(=O)N[C@@H](Cc2ccc(F)cc2)C(=O)N2CCCC[C@H]2C(=O)N[C@@H](CC(=O)O)C(=O)N2CCC[C@H]2C(=O)N[C@@H](CN)C(=O)N[C@@H](CC(C)C)C(=O)N2C[C@H](O)C[C@H]2C(=O)N[C@@H](Cc2c[nH]c3ccccc23)C(=O)N[C@@H](CCN)C(=O)N[C@@H](Cc2cn(CC(=O)O)c3ccccc23)C(=O)N1C [Example 14122]
8.00 to 9.52	CCCC[C@H]1C(=O)N(C)[C@@H](CCCC)C(=O)N[C@@H](CC(C)C)C(=O)N[C@H](C(=O)NCC(=O)N[C@@H](CCC(=O)NCCNC(=O)CC[C@H](NC(=O)CCCCCCCCCCCCCCCCC(=O)O)C(=O)O)C(=O)O)CSCC(=O)N[C@@H](Cc2ccc(F)cc2)C(=O)N2CCCC[C@H]2C(=O)N[C@@H](CC(=O)O)C(=O)N2CCC[C@H]2C(=O)N[C@@H](CN)C(=O)N[C@@H](CC(C)C)C(=O)N2C[C@H](O)C[C@H]2C(=O)N[C@@H](Cc2c[nH]c3ccccc23)C(=O)N[C@@H](CCN)C(=O)N[C@@H](Cc2cn(CC(=O)O)c3ccccc23)C(=O)N1C [Example 14123] ({CH2CO}-[Phe(4-F)][Pip]DP[Dap]L[Hyp]W[Dab][Trp(1-CH2COOH)][NMeNle][NMeNle]LCGE([Ethylenediamine-γGlu-C18 diacid])-OH; thioether N-14)
8.00 to 9.52	CCCC[C@H]1C(=O)N(C)[C@@H](CCCC)C(=O)N[C@@H](CC(C)C)C(=O)N[C@H](C(=O)NCC(=O)N[C@@H](Cc2cn(CCOCCOCCOCCOCCOCCOCCOCCOCCOCCOCCOCCNC(=O)CCCNC(=O)CCCCCCCCCCCCCCCCC(=O)O)nn2)C(=O)O)CSCC(=O)N[C@@H](Cc2ccc(O)cc2)C(=O)N(C)[C@@H](C)C(=O)N[C@@H](CC(N)=O)C(=O)N2CCC[C@H]2C(=O)N[C@@H](CN)C(=O)N[C@@H](CC(C)C)C(=O)N2C[C@H](O)C[C@H]2C(=O)N[C@@H](Cc2c[nH]c3ccccc23)C(=O)N[C@@H](CCN)C(=O)N[C@@H](Cc2cn(CC(=O)O)c3ccccc23)C(=O)N1C [Example 14125]
8.00 to 9.52	CCCC[C@H]1C(=O)N(C)[C@@H](CCCC)C(=O)N[C@@H](CC(C)C)C(=O)N[C@H](C(=O)NCC(=O)N[C@@H](Cc2cn(CCCNC(=O)CCCCCCCCCCCCCCCCC(=O)O)nn2)C(=O)O)CSCC(=O)N[C@@H](Cc2ccc(O)cc2)C(=O)N(C)[C@@H](C)C(=O)N[C@@H](CC(N)=O)C(=O)N2CCC[C@H]2C(=O)N[C@@H](CN)C(=O)N[C@@H](CC(C)C)C(=O)N2C[C@H](O)C[C@H]2C(=O)N[C@@H](Cc2c[nH]c3ccccc23)C(=O)N[C@@H](CCN)C(=O)N[C@@H](Cc2cn(CC(=O)O)c3ccccc23)C(=O)N1C [Example 14126]
